Measurements from patent EP4596536A1 (Shanghai de Novo Pharmatech Co., Ltd., priority 2022, dated 2024).

Biological target: T1, TLR8 (Homo sapiens, UniProt Q9NR97)
T1 construct: host or cells: HEK293 (HEK-BLUE-hTLR8)
T1 sequence (Q9NR97 27-1041): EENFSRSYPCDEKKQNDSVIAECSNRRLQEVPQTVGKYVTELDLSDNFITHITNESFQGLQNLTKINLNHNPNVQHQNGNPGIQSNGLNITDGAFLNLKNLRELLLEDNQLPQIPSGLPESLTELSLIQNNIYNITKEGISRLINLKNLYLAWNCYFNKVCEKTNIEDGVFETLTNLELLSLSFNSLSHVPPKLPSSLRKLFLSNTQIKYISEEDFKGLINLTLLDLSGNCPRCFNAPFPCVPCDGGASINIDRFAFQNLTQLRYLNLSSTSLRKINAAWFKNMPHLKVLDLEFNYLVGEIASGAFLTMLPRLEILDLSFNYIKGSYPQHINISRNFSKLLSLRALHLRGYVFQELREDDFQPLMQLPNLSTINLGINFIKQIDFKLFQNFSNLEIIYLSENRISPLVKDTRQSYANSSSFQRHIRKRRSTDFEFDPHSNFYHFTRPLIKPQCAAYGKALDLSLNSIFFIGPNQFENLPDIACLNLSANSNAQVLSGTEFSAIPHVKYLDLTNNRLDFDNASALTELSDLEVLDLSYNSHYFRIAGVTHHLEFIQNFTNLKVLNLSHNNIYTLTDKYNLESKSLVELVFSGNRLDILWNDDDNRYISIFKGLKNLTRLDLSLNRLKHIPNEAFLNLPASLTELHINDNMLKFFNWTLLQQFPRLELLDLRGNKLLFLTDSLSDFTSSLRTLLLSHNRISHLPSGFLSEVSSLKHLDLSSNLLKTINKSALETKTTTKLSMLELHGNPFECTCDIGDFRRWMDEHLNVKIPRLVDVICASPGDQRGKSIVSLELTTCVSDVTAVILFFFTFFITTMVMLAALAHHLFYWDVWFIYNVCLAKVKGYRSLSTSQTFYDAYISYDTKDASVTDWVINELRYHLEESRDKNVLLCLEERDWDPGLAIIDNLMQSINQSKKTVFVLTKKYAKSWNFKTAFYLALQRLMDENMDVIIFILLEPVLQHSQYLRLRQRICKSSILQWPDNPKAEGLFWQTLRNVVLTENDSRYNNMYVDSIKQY
Assay: HEK-BLUE-hTLR8 cell SEAP reporter assay (Quanti-Blue)
Type: cell-based
Conditions: HEK-BLUE-hTLR8 cells, 0.5 nM to 15 µM, 24 hours
Method: In this experiment, the biological activity of TLR7 and TLR8 in the compound of formula I was detected using cell tests. This method was conducted in human embryonic kidney cells (HEK293) expressing TLR family members such as TLR4, TLR7, TLR8 or TLR9. TLR agonists activate TLRs, triggering the activation of downstream NF-kB, which in turn activates the secreted embryonic alkaline phosphatase (SEAP) reporter gene. The activity of SEAP was detected using the Quanti-Blue (InvivoGen) reagent, thereby reflecting the activities of TLR7 and TLR8 agonists.
The detailed experimental method was as follows: HEK-BLUE-hTLR7 and HEK-BLUE-hTLR8 cell lines were purchased from Invivogen Company and cultured in DMEM medium containing 4.5 g/L glucose (Sigma-Aldrich) and 10% fetal bovine serum under the conditions of temperature 37°C, humidity 95% and 5% CO2.
The compound was tested at a concentration ranging from 0.5 nM to 15 µM over a total of 10 concentration gradients. TLR7 or TLR8 agonists with known activity were added as positive controls, and 1 µL of DMSO was added as a negative control.
The cells were treated as follows: the cells were removed from the culture dish and centrifuged to remove the medium, and resuspended in a T-150 bottle with 10 mL of preheated PBS, 12 mL of preheated medium was added, and the cells were gently pipetted up and down and counted under a microscope. A 200,000/mL single-cell suspension was immediately prepared with medium and added to a 96-well plate at 200 µL/well (40,000/well). The final concentration of DMSO was 0.5%.
The compound was added and incubated in an incubator at 37°C, 5% CO2 for 24 hours.
A supernatant at 20 µL/well was aspirated into 180 µL of preheated Quanti-Blue at 37°C, incubated at 37°C for 1.5 hours, and detected for the absorbance (OD value) with a spectrophotometer at 650 nm. The formula for calculating the agonistic effect is as follows:
Effect % = (average OD value of the drug-administered group - average OD value of the DMSO group) / (average OD value of the positive drug group - average OD value of the DMSO group) × 100
Graphpad software was used to fit the concentration-effect curve, and EC50 was calculated. The test results are shown in Table 15 (A denotes < 250 nM, B denotes 250 nM-1 µM, C denotes 1 µM-2 µM, D denotes > 2 µM, and - denotes not listed or not tested): Table 15

First: CCCN(CCO)C(=O)C1=Cc2ccc(C3(C(=O)Nc4cnc5c(c4)CN(C(=O)CNC(=O)CCOCCOCCNC(=O)CCCNC(=O)CN4C(=O)C=CC4=O)CC5)CC3)cc2N=C(N)C1 [II-24, 2-amino-8-(1-((6-(20-(2,5-dioxo-2,5-dihydro-1H-pyrrol-1-yl)-4,14,19-trioxo-7,10-dioxa-3,13,18-triazaeicosanacyl)-5,6,7,8-tetrahydro-1,6-naphthyridin-3-yl)carbamoyl)cyclopropyl)-N-(2-hydroxyethyl)-N-propyl-3H-benzo[b]azepine-4-formamide]
Second: CCCN(OCC)C(=O)C1=Cc2ccc(C3(C(=O)Nc4cnc5c(c4)CNCC5)CC3)cc2N=C(N)C1 [Compound 23, 2-amino-N-ethoxy-N-propyl-8-(1-((5,6,7,8-tetrahydro-1,6-naphthyridin-3-yl)carbamoyl)cyclopropyl)-3H-benzo[b]azepine-4-formamide]
The EC50 of the first is higher: 0.25 to 1 µM for the first, less than 0.25 µM for the second. The second is the more potent here.

First: CCCN(CCO)C(=O)C1=Cc2ccc(C3(C(=O)Nc4cnc5c(c4)CN(C(=O)CCOCCOCCOCCOCCOCCOCCNC(=O)[C@H](CCCNC(N)=O)NC(=O)[C@@H](NC(=O)CCCCCN4C(=O)C=CC4=O)C(C)C)CC5)CC3)cc2N=C(N)C1 [II-18, 2-amino-8-(1-((6-((24S,27S)-34-(2,5-dioxo-2,5-dihydro-1H-pyrrol-1-yl)-27-isopropyl-23,26,29-trioxo-24-(3-ureidopropyl)-4,7,10,13,16,19-hexaoxa-22,25,28-triazatetratriacontanacyl)-5,6,7,8-tetrahydro-1,6-naphthyridin-3-yl)carbamoyl)cyclopropyl)-N-(2-hydroxyethyl)-N-propyl-3H-benzo[b]azepine-4-formamide]
Second: CCCN(CCO)C(=O)C1=Cc2ccc(C3(C(=O)Nc4cnc5c(c4)CN(C(=O)CCOCCOCCNC(=O)CN4C(=O)C=CC4=O)CC5)CC3)cc2N=C(N)C1 [II-23, 2-amino-8-(1-((6-(3-(2-(2-(2-(2,5-dioxo-2,5-dihydro-1H-pyrrol-1-yl)acetylamino)ethoxy)ethoxy)propionyl)-5,6,7,8-tetrahydro-1,6-naphthyridin-3-yl)carbamoyl)cyclopropyl)-N-(2-hydroxyethyl)-N-propyl-3H-benzo[b]azepine-4-formamide]
The EC50 of the first is higher: 0.25 to 1 µM for the first, less than 0.25 µM for the second.

First: CCCN(CCC)C(=O)C1=Cc2c(F)cc(C3(C(=O)Nc4cncc(CN)c4)CC3)cc2N=C(N)C1 [Compound 13, 2-amino-8-(1-((5-(aminomethyl)pyridin-3-yl)carbamoyl)cyclopropyl)-6-fluoro-N,N-dipropyl-3H-benzo[b]azepine-4-formamide]
Second: CCCN(CCO)C(=O)C1=Cc2ccc(C3(C(=O)Nc4cnc5c(c4)CN(C(=O)CCOCCOCCNC(=O)CCN4C(=O)C=CC4=O)CC5)CC3)cc2N=C(N)C1 [II-7, 2-amino-8-(1-((6-(3-(2-(2-(3-(2,5-dioxo-2,5-dihydro-1H-pyrrol-1-yl)propionylamino)ethoxy)ethoxy)propionyl)-5,6,7,8-tetrahydro-1,6-naphthyridin-3-yl)carbamoyl)cyclopropyl)-N-(2-hydroxyethyl)-N-propyl-3H-benzo[b]azepine-4-formamide]
The EC50 of the first is lower: less than 0.25 µM for the first, 0.25 to 1 µM for the second.

First: CCCN(CCO)C(=O)C1=Cc2ccc(C3(C(=O)Nc4cnc5c(c4)CN(C(=O)CCOCCOCCNC(=O)[C@H](CCCNC(N)=O)NC(=O)[C@@H](NC(=O)CCCCCN4C(=O)C=CC4=O)C(C)C)CC5)CC3)cc2N=C(N)C1 [II-17, 2-amino-8-(1-((6-((12S,15S)-22-(2,5-dioxo-2,5-dihydro-1H-pyrrol-1-yl)-15-isopropyl-11,14,17-trioxo-12-(3-ureidopropyl)-4,7-dioxa-10,13,16-triazabehenoyl)-5,6,7,8-tetrahydro-1,6-naphthyridin-3-yl)carbamoyl)cyclopropyl)-N-(2-hydroxyethyl)-N-propyl-3H-benzo[b]azepine-4-formamide]
Second: CCCN(CCO)C(=O)C1=Cc2ccc(C3(C(=O)Nc4cccc(N)c4)CC3)cc2N=C(N)C1 [Compound 19, 2-amino-8-(1-((3-aminophenyl)carbamoyl)cyclopropyl)-N-(2-hydroxyethyl)-N-propyl-3H-benzo[b]azepine-4-formamide]
The EC50 of the first is higher: 0.25 to 1 µM for the first, less than 0.25 µM for the second.

Compared with `CCCN(CCO)C(=O)C1=Cc2ccc(C3(C(=O)Nc4cnc5c(c4)CN(C(=O)OCc4ccc(NC(=O)[C@H](CCCNC(N)=O)NC(=O)[C@@H](NC(=O)Cc6ccc(N7C(=O)C=CC7=O)cc6)C(C)C)cc4)CC5)CC3)cc2N=C(N)C1` [II-97], `CCCN(CCO)C(=O)C1=Cc2ccc(C3(C(=O)NCc4ccc(N)cc4)CC3)cc2N=C(N)C1` [Compound 17, 2-amino-8-(1-((4-aminobenzyl)carbamoyl)cyclopropyl)-N-(2-hydroxyethyl)-N-propyl-3H-benzo[b]azepine-4-formamide] is lower in EC50: 0.25 to 1 µM for the first, less than 0.25 µM for the second.

First: (S)-1-((1-(3-(1-(2-amino-4-((2-hydroxyethyl)(propyl)carbamoyl)-3H-benzo[b]azepin-8-yl)cyclopropyl-1-amido)-7,8-dihydro-1,6-naphthyridin-6(5H)-yl)-1-oxo-5-ureidopentan-2-yl)carbamoylamino)cyclobutyl-1-carboxylic acid [Example 35]
Second: CCCN(CCC)C(=O)C1=Cc2ccc(C3(C(=O)Nc4cncc(CN)c4)CC3)cc2N=C(N)C1 [Compound 16]
The EC50 of the first is higher: 0.25 to 1 µM for the first, less than 0.25 µM for the second. The second is the more potent here.

First: CCCN(CCO)C(=O)C1=Cc2ccc(C3(C(=O)Nc4cnc5c(c4)CN(C(=O)CNC(=O)[C@H](Cc4ccccc4)NC(=O)CNC(=O)CNC(=O)CCCCCN4C(=O)C=CC4=O)CC5)CC3)cc2N=C(N)C1
Second: CCCN(CCO)C(=O)C1=Cc2c(F)cc(C3(C(=O)Nc4cncc(CN)c4)CC3)cc2N=C(N)C1 [Compound 12, 2-amino-8-(1-((5-(aminomethyl)pyridin-3-yl)carbamoyl)cyclopropyl)-6-fluoro-N-(2-hydroxyethyl)-N-propyl-3H-benzo[b]azepine-4-formamide]
The EC50 of the first is higher: 0.25 to 1 µM for the first, less than 0.25 µM for the second.

With `CCCN(CCO)C(=O)C1=Cc2ccc(C3(C(=O)Nc4cnc5c(c4)CN(C(=O)OCc4ccc(O[C@@H]6O[C@H](C(=O)O)[C@@H](O)[C@H](O)[C@H]6O)c(NC(=O)CNC(=O)CCCCCN6C(=O)C=CC6=O)c4)CC5)CC3)cc2N=C(N)C1` [II-36, (2S,3S,4S,5R,6S)-6-(4-(((3-(1-(2-amino-4-((2-hydroxyethyl)(propyl)carbamoyl)-3H-benzo[b]azepin-8-yl)cyclopropyl-1-formylamino)-5,6,7,8-tetrahydro-1,6-naphthyridine-6-carbonyl)oxy)methyl)-2-(2-(6-(2,5-dioxo-2,5-dihydro-1H-pyrrol-1-yl)hexanoylamino)acetylamino)phenoxy)-3,4,5-trihydroxytetrahydro-2H-pyran-2-carboxylic acid] the EC50 was less than 0.25 µM.
